Reference: patent US12479839B2, “Crystalline form of ATR inhibitor and use thereof” (Wuxi Biocity Biopharmaceutics Co., Ltd., priority 2019, dated 2025)

Experiments:
[1] = Solid stability test of Crystal Form A under high temperature and high humidity; format: physicochemical; settings: 40° C./75% humidity
Protocol: Two samples of Crystal Form A were weighed in parallel, each about 100 mg, placed on the bottom of a glass sample bottle and spread into a thin layer. The samples were sealed with aluminum foil paper, and some small holes were pierced in the aluminum foil paper to ensure that the sample can fully contact with the ambient air. The samples were placed at a constant temperature and humidity box under the condition of 40° C./75% humidity. The samples under the above conditions were sampled and tested on day 30, and the test results were compared with the initial test result on day 0.

[2] = Solid physical stability tests of Crystal Form A under different temperature, humidity and light conditions; format: physicochemical; settings: Day 10, XRPD
Protocol: Four samples of Crystal Form A were weighed in parallel, each about 100 mg, placed on the bottom of a glass sample bottle and spread into a thin layer. The samples were sealed with aluminum foil paper, and some small holes were pierced in the aluminum foil paper to ensure that the sample can fully contact with the ambient air. Four prepared samples were placed in 25° C./92.5% relative humidity, 60° C., 40° C./75% and light conditions, respectively, and the physical stability of the samples on the 10th day was investigated. At the same time, a sample of about 100 mg of Crystal Form A was weighed separately, placed on the bottom of the glass sample bottle, sealed with a screw cap, and stored at −20° C. for use as control. On the 10th day, all the samples were taken out, returned to room temperature, and the appearance changes of the samples were observed. XRPD was used to detect the sample crystal forms. By comparing the accelerated samples with the control sample, the solid physical stability of Crystal Form A of the compound of formula (I) was determined.

[3] = Solid stability tests of Crystal Form B under high temperature, high humidity and light conditions; format: physicochemical
Excerpt: The samples were sealed with aluminum foil paper, and some small holes were pierced in the aluminum foil paper to ensure that the sample can fully contact with the ambient air. The samples were placed in a constant temperature and humidity or light box under different humidity conditions. […] The test results were compared with the initial test results on day 0.

[4] = In vivo pharmacokinetic study in female Balb/c Nude mice; parameters: species or system mouse
Protocol: Experimental procedure: The purpose of this study is to determine the pharmacokinetic parameters of the compound and calculate its gavage bioavailability in female Balb/c Nude mice.
Six female Balb/c Nude mice were used in this project, three mice were injected intravenously, with the dosage of 1 mg/kg, where plasma samples at 0 h (before administration) and at 0.0833, 0.25, 0.5, 1, 2, 4, 6, 8 and 24 h after administration were collected, and the other three mice were administered intragastrically with the dose of 10 mg/kg or 25 mg/kg, where plasma samples at 0 h (before administration) and at 0.5, 1, 2, 3, 4, 6, 8, 24 h after administration were collected. LC-MS/MS analysis was performed on the collected samples and data were collected. The collected analysis data were calculated with Phoenix WinNonlin 6.2.1 software for relevant pharmacokinetic parameters.
Note: C0 (nM) is the concentration of the drug in the body at 0 min; Cl (mL/min/kg) is the clearance rate of the drug in the body; Vdss (L/kg) is the volume of distribution of the drug in the body; T1/2 (h) is the half-life; AUC0-t (nM·h) is the amount of drug exposure in the body; Cmax (nM) is the highest concentration of the drug in the body; F is the bioavailability.

With `Cc1cnn(C)c1-c1cc(N2CCOC[C@H]2C)nc(-c2cc(CO)cc3[nH]ccc23)n1` [Crystal Form A] the Appearance ([1]; day 0) was “White”, the Content ([1]; day 0) was 99.61% and the “Crystal Form” value ([1]; day 0) was “Form A”. For the same compound, the Total impurity ([1]; day 0) was 0.39%, the Appearance ([1]; day 30) was “White” and the Content ([1]; day 30) was 99.59%. For the same compound, the “Crystal Form” value ([1]; day 30) was “Form A”, the Total impurity ([1]; day 30) was 0.45% and the “Crystal Form” value ([2]; 25° C./92.5% relative humidity (open)) was “Form A”. The “Crystal Form” value ([2]; 40° C./75% relative humidity (open)) was “Form A”, the “Crystal Form” value ([2]; 60° C. (open)) was “Form A” and the “Crystal Form” value ([2]; light) was “Form A”. The “Crystal Form” value ([2]; −20° C. sealed (control)) was “Form A”.

In the case of `Cc1cnn(C)c1-c1cc(N2CCOC[C@H]2C)nc(-c2cc(CO)cc3[nH]ccc23)n1` [Crystal Form B], the Content ([3]; 25° C./65% RH, 3 month) is reported as 98.4%, the “Crystal Form” value ([3]; 25° C./65% RH, 3 month) is reported as “Crystal Form B” and the Total impurity ([3]; 25° C./65% RH, 3 month) is reported as 0.45%. For the same compound, the Content ([3]; 25° C./65% RH, 6 month) was 99.8%, the “Crystal Form” value ([3]; 25° C./65% RH, 6 month) was “Crystal Form B” and the Total impurity ([3]; 25° C./65% RH, 6 month) was 0.43%. For the same compound, the Content ([3]; 25° C./65% RH, day 0) was 99.0%, the “Crystal Form” value ([3]; 25° C./65% RH, day 0) was “Crystal Form B” and the Total impurity ([3]; 25° C./65% RH, day 0) was 0.42%. For the same compound, the Content ([3]; 25° C./92.5% RH, day 0) was 99.0%, the “Crystal Form” value ([3]; 25° C./92.5% RH, day 0) was “Crystal Form B” and the Total impurity ([3]; 25° C./92.5% RH, day 0) was 0.42%. For the same compound, the Content ([3]; 25° C./92.5% RH, day 5) was 98.9%, the “Crystal Form” value ([3]; 25° C./92.5% RH, day 5) was “Crystal Form B” and the Total impurity ([3]; 25° C./92.5% RH, day 5) was 0.44%. The Content ([3]; 25° C./92.5% RH, day 10) was 100.1%, the “Crystal Form” value ([3]; 25° C./92.5% RH, day 10) was “Crystal Form B” and the Total impurity ([3]; 25° C./92.5% RH, day 10) was 0.41%. For the same compound, the Content ([3]; 25° C./92.5% RH, day 30) was 99.7%, the “Crystal Form” value ([3]; 25° C./92.5% RH, day 30) was “Crystal Form B” and the Total impurity ([3]; 25° C./92.5% RH, day 30) was 0.41%. For the same compound, the Content ([3]; 40° C./75% RH, 1 month) was 100.6%, the “Crystal Form” value ([3]; 40° C./75% RH, 1 month) was “Crystal Form B” and the Total impurity ([3]; 40° C./75% RH, 1 month) was 0.45%. For the same compound, the Content ([3]; 40° C./75% RH, 2 month) was 100.4%, the “Crystal Form” value ([3]; 40° C./75% RH, 2 month) was “Crystal Form B” and the Total impurity ([3]; 40° C./75% RH, 2 month) was 0.42%. The Content ([3]; 40° C./75% RH, 3 month) was 98.8%, the “Crystal Form” value ([3]; 40° C./75% RH, 3 month) was “Crystal Form B” and the Total impurity ([3]; 40° C./75% RH, 3 month) was 0.44%. The Content ([3]; 40° C./75% RH, 6 month) was 99.8%, the “Crystal Form” value ([3]; 40° C./75% RH, 6 month) was “Crystal Form B” and the Total impurity ([3]; 40° C./75% RH, 6 month) was 0.43%. The Content ([3]; 40° C./75% RH, day 0) was 99.0%, the “Crystal Form” value ([3]; 40° C./75% RH, day 0) was “Crystal Form B” and the Total impurity ([3]; 40° C./75% RH, day 0) was 0.42%. For the same compound, the Content ([3]; 60° C., day 0) was 99.0%, the “Crystal Form” value ([3]; 60° C., day 0) was “Crystal Form B” and the Total impurity ([3]; 60° C., day 0) was 0.42%. For the same compound, the Content ([3]; 60° C., day 5) was 101.5%, the “Crystal Form” value ([3]; 60° C., day 5) was “Crystal Form B” and the Total impurity ([3]; 60° C., day 5) was 0.43%. The Content ([3]; 60° C., day 10) was 101.6%, the “Crystal Form” value ([3]; 60° C., day 10) was “Crystal Form B” and the Total impurity ([3]; 60° C., day 10) was 0.39%. For the same compound, the Content ([3]; 60° C., day 30) was 99.4%, the “Crystal Form” value ([3]; 60° C., day 30) was “Crystal Form B” and the Total impurity ([3]; 60° C., day 30) was 0.41%. For the same compound, the Content ([3]; light, day 0) was 99.0%, the “Crystal Form” value ([3]; light, day 0) was “Crystal Form B” and the Total impurity ([3]; light, day 0) was 0.42%. For the same compound, the Content ([3]; light, day 5) was 101.0%, the “Crystal Form” value ([3]; light, day 5) was “Crystal Form B” and the Total impurity ([3]; light, day 5) was 0.44%. For the same compound, the Content ([3]; light, day 10) was 100.7%, the “Crystal Form” value ([3]; light, day 10) was “Crystal Form B” and the Total impurity ([3]; light, day 10) was 0.42%.

`Cc1cnn(C)c1-c1cc(N2CCOC[C@H]2C)nc(-c2cc(CO)cc3[nH]ccc23)n1` [Compound of formula (1)] gave an F ([4]; 10 mg/kg intragastric) of 129.0% and an AUC ([4]; mouse, plasma, 1 mg/kg IV, read-out: AUC04) of 1.09 µM·h.
